In patent publication US20260226019A1, “NEGATIVE ALLOSTERIC MODULATORS OF METABOTROPIC GLUTAMATE RECEPTOR 2” (Vanderbilt University, priority 2023, published 2026):

Biological target: T1, human mGlu2 (Homo sapiens, UniProt Q14416)
T1 construct: expressed in transfected cells; host or cells: HEK-293 stably co-expressing GIRK channels
Assay: mGlu GIRK cell-based thallium flux assay, human mGlu2
Details: HEK-293 cells co-expressing human mGlu2 and GIRK, EC80 glutamate, single experiment
Experimental: Human embryonic kidney (HEK-293) cell lines stably co-expressing human or rat mGlu2 and G protein-coupled inwardly rectifying potassium (GIRK) channels, or human mGlu3 and GIRK, were used for in vitro evaluation of compound activity in thallium flux assay using a fluorescent thallium indicator dye.
The day before the assay, GIRK cells co-expressing human mGlu3, human or rat mGlu2, as described above, were plated in black-walled, clear-bottomed, amine-coated 384-well plates at a density of 15,000 cells/[…]/well in the assay medium (glutamine-depleted basal DMEM supplemented with 10% dialyzed FBS, 20 mM HEPES, 1 mM sodium pyruvate). Cells were incubated at 37° C. in the presence of 5% CO2. The next day, assay buffer (Hanks balanced salt solution, 20 mM HEPES, 4.16 mM sodium bicarbonate, pH 7.2) was prepared to dilute compounds and Thallos AM fluorescent dye solution. The 2× Thallos dye solution (final concentration 0.34 μM to the cells) was prepared by mixing the dye stock (2.97 mM in DMSO) to 1:1 with 10% pluronic acid before adding to the assay buffer. Cells were washed with assay buffer using a microplate washer to remove the medium, resulting in 20 μL of buffer remaining in each well. […] During the cell dye loading incubation period, a 10-point concentration serial dilution of compound was created from a 10 mM DMSO compound stock by performing a 1:3 serial dilution in DMSO using the Bravo liquid handler. The 2× compound plate was generated by transferring 0.24 μL of the diluted compound in each well to a daughter plate using an Echo acoustic liquid handler. This is further diluted in 40 μL assay buffer, resulting in a range from […] to 1.5 nM final concentration in the assay. The agonist plate (5×) was prepared to include EC80 glutamate concentration (a concentration to elicit 80% of a maximally effective glutamate concentration) in thallium buffer (125 mM sodium bicarbonate, 1 mM magnesium sulfate, 1.8 mM calcium sulfate, 5 mM glucose, 10 mM HEPES, pH 7.2, 12.5 mM thallium sulfate).
After dye-loading, cell plates were washed with assay buffer to remove excess extracellular dye using a microplate washer, resulting in 20 μL of buffer remaining in each well. After a ten-minute equilibration period, cell, compound and agonist plates were loaded into a Hamamatsu μCell kinetic imaging plate reader equipped with liquid handler to monitor fluorescence changes at 480 nm excitation and 540 nm emission settings. Briefly, after collection of baseline fluorescence, 20 μL of compound was added and incubated for two minutes and twenty seconds. This is immediately followed by adding 10 μL of glutamate-thallium buffer to the wells containing compound. The fluorescent signal was monitored an additional 2.5 minutes after the glutamate addition. Multiple reference wells containing no compound received either no glutamate (for a baseline reference), EC80 glutamate, or ECmax glutamate (for normalization to maximum response). […] Each compound concentration series occurred one time in each plate, and replicates from two or three plates were used in each experimental run. Thallium solutions were handled and disposed of according to guidelines from the Vanderbilt University Chemical Safety department.
Data were normalized using a static ratio function (F/F0) by dividing every fluorescent measurement by the initial fluorescent value for the corresponding well. The increase in signal resulting from the glutamate/thallium addition of the second add was measured by determining the slope from 3 seconds to 13 seconds after the addition. The average of all baseline slopes (no compound, no glutamate) was determined and this value was subtracted from all other slope values. The average of all ECmax slopes was determined and this value was used to normalize the baseline-corrected slopes to a percent max value (% Emax).

T1 sequence (Q14416 19-872): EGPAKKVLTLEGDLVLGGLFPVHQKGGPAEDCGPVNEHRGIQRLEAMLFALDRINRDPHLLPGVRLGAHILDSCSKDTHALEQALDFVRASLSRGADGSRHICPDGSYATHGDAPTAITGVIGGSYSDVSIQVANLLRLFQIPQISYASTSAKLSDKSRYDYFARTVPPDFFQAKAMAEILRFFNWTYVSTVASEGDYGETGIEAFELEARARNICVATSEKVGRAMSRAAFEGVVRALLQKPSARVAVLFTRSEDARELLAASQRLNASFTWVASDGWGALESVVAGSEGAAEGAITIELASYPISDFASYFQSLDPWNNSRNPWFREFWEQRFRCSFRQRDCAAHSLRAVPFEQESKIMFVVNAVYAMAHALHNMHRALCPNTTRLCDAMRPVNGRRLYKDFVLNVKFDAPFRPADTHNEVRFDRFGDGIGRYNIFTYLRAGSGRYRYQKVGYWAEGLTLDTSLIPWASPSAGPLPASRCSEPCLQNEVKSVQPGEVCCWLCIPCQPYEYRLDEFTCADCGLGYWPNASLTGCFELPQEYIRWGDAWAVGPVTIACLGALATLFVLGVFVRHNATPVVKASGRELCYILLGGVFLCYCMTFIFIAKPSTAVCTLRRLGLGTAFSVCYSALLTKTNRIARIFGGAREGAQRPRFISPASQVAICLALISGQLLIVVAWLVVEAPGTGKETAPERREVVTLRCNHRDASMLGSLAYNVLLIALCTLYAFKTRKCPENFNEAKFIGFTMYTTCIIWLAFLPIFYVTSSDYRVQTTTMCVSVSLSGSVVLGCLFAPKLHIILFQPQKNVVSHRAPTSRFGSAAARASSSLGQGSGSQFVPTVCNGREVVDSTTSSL

| IC50 [nM] | Structure (SMILES) |
| --- | --- |
| 292 | O=C1NCc2c(CN3CC4CCC(C3)O4)cc(-c3ccc(F)cc3F)cc21 [Compound B7, 4-((8-oxa-3-azabicyclo[3.2.1]octan-3-yl)methyl)-6-(2,4-difluorophenyl)isoindolin-1-one] |
| 340 | Cc1cnn(C)c1-c1cc(C2=CCOCC2)cc2c1CNC2=O [Compound 94, 6-(3,6-dihydro-2H-pyran-4-yl)-4-(1,4-dimethyl-1H-pyrazol-5-yl)isoindolin-1-one] |
| 1380 | O=C1NCc2c1cc(-c1ccc(F)cc1F)cc2-c1ccc2cnccc2c1 [Compound 23, 6-(2,4-difluorophenyl)-4-(isoquinolin-6-yl)isoindolin-1-one] |
| > 10000 | COc1cc(F)ccc1-c1cc2c(c(-c3cnsc3)c1)CNC2=O [Compound 48, 6-(4-fluoro-2-methoxyphenyl)-4-(isothiazol-4-yl)isoindolin-1-one] |
| 853 | O=C1NCc2c1cc(-c1ccc(F)cc1F)cc2C1=CCCCO1 [Compound B9, 6-(2,4-difluorophenyl)-4-(3,4-dihydro-2H-pyran-6-yl)isoindolin-1-one] |
| 2690 | O=C1NCc2c1cc(-c1ccc(F)cc1F)cc2-c1ccc2ccncc2c1 [Compound 26, 6-(2,4-difluorophenyl)-4-(isoquinolin-7-yl)isoindolin-1-one] |
| 2560 | O=C1NCc2c1cc(-c1ccc(F)cc1F)cc2-c1cnn(C2CCC2)c1 [Compound 17, 4-(1-cyclobutyl-1H-pyrazol-4-yl)-6-(2,4-difluorophenyl)isoindolin-1-one] |
| 2380 | O=C1NCc2c1cc(-c1ccc(F)cc1F)cc2-c1ccc2cccnc2c1 [Compound 22, 6-(2,4-difluorophenyl)-4-(quinolin-7-yl)isoindolin-1-one] |

More lines, now with the values behind:

| Structure (SMILES) | IC50 [nM] |
| --- | --- |
| O=C1NCc2c1cc(-c1ccc(F)cc1F)cc2-c1ccc2ncccc2c1 [Compound 24, 6-(2,4-difluorophenyl)-4-(quinolin-6-yl)isoindolin-1-one] | 1660 |
| Cc1nn(C)c(C)c1-c1cc(C2CCOCC2)cc2c1CNC2=O [Compound 98, 6-(tetrahydro-2H-pyran-4-yl)-4-(1,3,5-trimethyl-1H-pyrazol-4-yl)isoindolin-1-one] | 985 |
| O=C1NCc2c1cc(-c1ccc(F)cc1F)cc2-c1cncnc1 [Compound 37, 6-(2,4-difluorophenyl)-4-(pyrimidin-5-yl)isoindolin-1-one] | 950 |
| O=C1NCc2c1cc(-c1ccc(F)cc1F)cc2N1CC(O)(C(F)(F)F)C1 [Compound A19, 6-(2,4-difluorophenyl)-4-(3-hydroxy-3-(trifluoromethyl)azetidin-1-yl)isoindolin-1-one] | 1220 |
| O=C1NCc2c(CN3CC(O)(C(F)(F)F)C3)cc(-c3ccc(F)cc3F)cc21 [Compound B8, 6-(2,4-difluorophenyl)-4-((3-hydroxy-3-(trifluoromethyl)azetidin-1-yl)methyl)isoindolin-1-one] | 193 |
| Cc1cc(-c2cc3c(c(-c4cnsc4)c2)CNC3=O)c(F)cn1 [Compound 61, 6-(5-fluoro-2-methylpyridin-4-yl)-4-(isothiazol-4-yl)isoindolin-1-one] | 1190 |
| Cc1nn(C)c(C)c1-c1cc(C2=CCOCC2)cc2c1CNC2=O [Compound 92, 6-(3,6-dihydro-2H-pyran-4-yl)-4-(1,3,5-trimethyl-1H-pyrazol-4-yl)isoindolin-1-one] | 424 |
| COc1cc(F)c(-c2cc3c(c(-c4cnsc4)c2)CNC3=O)c(F)c1 [Compound 56, 6-(2,6-difluoro-4-methoxyphenyl)-4-(isothiazol-4-yl)isoindolin-1-one] | > 10000 |
| N#Cc1ccc(-c2cc(-c3ccc(F)cc3F)cc3c2CNC3=O)cn1 [Compound 33, 5-(6-(2,4-difluorophenyl)-1-oxoisoindolin-4-yl)picolinonitrile] | 1540 |
| O=C1NCc2c1cc(-c1ccc(F)cc1F)cc2N1C[C@H]2C[C@@H]1CO2 (racemic) [Compound A21, rac-4-((1R,4R)-2-oxa-5-azabicyclo[2.2.1]heptan-5-yl)-6-(2,4-difluorophenyl)isoindolin-1-one] | 306 |
